What was measured:
purple nutsedge = test: Test B pre/postemergence purple nutsedge; type: in vivo, Cyperus rotundus
Outline: (§1)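 Response is a visual 0-to-10 score relative to untreated plants, where 0 means no effect and 10 means complete control, taken twelve to sixteen days after application. Treatments went onto soil at planting and onto foliage of 1- to 4-leaf plants, using a surfactant-containing non-phytotoxic solvent.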

surinam grass = test: Test B pre/postemergence surinam grass; type: in vivo, Brachiaria decumbens
Outline: as §1

rape = test: Test B pre/postemergence rape; type: in vivo, Brassica napus
Outline: as §1

soybean = test: Test B pre/postemergence soybean; type: in vivo, Glycine max
Outline: as §1

cocklebur = test: Test B pre/postemergence cocklebur; type: in vivo, Xanthium strumarium
Outline: as §1

crabgrass = test: Test B pre/postemergence crabgrass; type: in vivo, Digitaria sanguinalis
Outline: as §1

pigweed = test: Test B pre/postemergence pigweed; type: in vivo, Amaranthus retroflexus
Outline: as §1

bedstraw = test: Test B pre/postemergence bedstraw; type: in vivo, Galium aparine
Outline: as §1

wild oat = test: Test B pre/postemergence wild oat; type: in vivo, Avena fatua
Outline: as §1

corn = test: Test B pre/postemergence corn; type: in vivo, Zea mays
Outline: as §1

blackgrass = test: Test B pre/postemergence blackgrass; type: in vivo, Alopecurus myosuroides
Outline: as §1

velvetleaf = test: Test B pre/postemergence velvetleaf; type: in vivo, Abutilon theophrasti
Outline: as §1

morningglory = test: Test B pre/postemergence morningglory; type: in vivo, Ipomoea hederacea
Outline: as §1

wheat = test: Test B pre/postemergence wheat; type: in vivo, Triticum aestivum
Outline: as §1

giant foxtail = test: Test B pre/postemergence giant foxtail; type: in vivo, Setaria faberii
Outline: as §1

[1] = Postemergence, Rate 62 g/ha, scale 0 to 10, 0 is no effect, 10 is complete control
[2] = Postemergence, Rate 250 g/ha, scale 0 to 10, 0 no effect, 10 complete control
[3] = Preemergence, Rate 62 g/ha, scale 0 to 10, 0 is no effect, 10 is complete control
[4] = Preemergence, Rate 125 g/ha, scale 0 to 10 (0 no effect, 10 complete control)
[5] = Preemergence, Rate 250 g/ha, scale of 0 to 10 where 0 is no effect and 10 is complete control
[6] = Preemergence, Rate 500 g/ha, scale 0 (no effect) to 10 (complete control)
[7] = Rate 125 g/ha, Postemergence, scale 0 to 10, 0 no effect, 10 complete control
[8] = Rate 500 g/ha, Postemergence, 0 to 10 scale (0 no effect, 10 complete control)

Cc1cccc(C)c1-n1c(=O)on(C(=O)N(c2ccc(F)cc2)C(C)C)c1=O [Compound 18]
Nutsedge plant response rating (purple nutsedge; [1]): 0 | Nutsedge plant response rating (purple nutsedge; [2]): 0 | Plant response rating, Nutsedge (purple nutsedge; [3]): 0 | Plant response rating, Nutsedge (purple nutsedge; [4]): 0 | Plant response rating, Nutsedge (purple nutsedge; [5]): 0 | Nutsedge plant response rating (purple nutsedge; [6]): 0 | Nutsedge plant response rating (purple nutsedge; [7]): 0 | Nutsedge plant response rating (purple nutsedge; [8]): 0 | B. signalgrass plant response rating (surinam grass; [1]): 0 | B. signalgrass plant response rating (surinam grass; [2]): 0 | Plant response rating, B. signalgrass (surinam grass; [3]): 0 | Plant response rating, B. signalgrass (surinam grass; [4]): 0 | Plant response rating, B. signalgrass (surinam grass; [5]): 7 | B. signalgrass plant response rating (surinam grass; [6]): 8 | B. signalgrass plant response rating (surinam grass; [7]): 0 | B. signalgrass plant response rating (surinam grass; [8]): 2 | Rape plant response rating (rape; [1]): 0 | Rape plant response rating (rape; [2]): 0 | Plant response rating, Rape (rape; [3]): 0 | Plant response rating, Rape (rape; [4]): 0 | Plant response rating, Rape (rape; [5]): 0 | Rape plant response rating (rape; [6]): 2 | Rape plant response rating (rape; [7]): 0 | Rape plant response rating (rape; [8]): 1 | Soybean plant response rating (soybean; [1]): 2 | Soybean plant response rating (soybean; [2]): 3 | Plant response rating, Soybean (soybean; [3]): 0 | Plant response rating, Soybean (soybean; [4]): 0 | Plant response rating, Soybean (soybean; [5]): 0 | Soybean plant response rating (soybean; [6]): 0 | Soybean plant response rating (soybean; [7]): 3 | Cocklebur plant response rating (cocklebur; [1]): 0 | Cocklebur plant response rating (cocklebur; [2]): 1 | Plant response rating, Cocklebur (cocklebur; [3]): 0 | Plant response rating, Cocklebur (cocklebur; [4]): 0 | Plant response rating, Cocklebur (cocklebur; [5]): 0 | Cocklebur plant response rating (cocklebur; [6]): 0 | Cocklebur plant response rating (cocklebur; [7]): 0 | Cocklebur plant response rating (cocklebur; [8]): 2 | Crabgrass plant response rating (crabgrass; [1]): 0 | Crabgrass plant response rating (crabgrass; [2]): 7 | Plant response rating, Crabgrass (crabgrass; [3]): 6 | Plant response rating, Crabgrass (crabgrass; [4]): 5 | Plant response rating, Crabgrass (crabgrass; [5]): 8 | Crabgrass plant response rating (crabgrass; [6]): 10 | Crabgrass plant response rating (crabgrass; [7]): 3 | Crabgrass plant response rating (crabgrass; [8]): 9 | Redroot pigweed plant response rating (pigweed; [1]): 1 | Redroot pigweed plant response rating (pigweed; [2]): 1 | Plant response rating, Redroot pigweed (pigweed; [3]): 4 | Plant response rating, Redroot pigweed (pigweed; [4]): 7 | Plant response rating, Redroot pigweed (pigweed; [5]): 8 | Redroot pigweed plant response rating (pigweed; [6]): 9 | Redroot pigweed plant response rating (pigweed; [7]): 1 | Redroot pigweed plant response rating (pigweed; [8]): 6 | Bedstraw plant response rating (bedstraw; [1]): 2 | Bedstraw plant response rating (bedstraw; [2]): 7 | Plant response rating, Bedstraw (bedstraw; [3]): 0 | Plant response rating, Bedstraw (bedstraw; [4]): 0 | Plant response rating, Bedstraw (bedstraw; [5]): 0 | Bedstraw plant response rating (bedstraw; [6]): 3 | Bedstraw plant response rating (bedstraw; [7]): 7 | Bedstraw plant response rating (bedstraw; [8]): 9 | Wild oats plant response rating (wild oat; [1]): 0 | Wild oats plant response rating (wild oat; [2]): 0 | Plant response rating, Wild oats (wild oat; [4]): 0 | Plant response rating, Wild oats (wild oat; [5]): 0 | Wild oats plant response rating (wild oat; [6]): 5 | Wild oats plant response rating (wild oat; [7]): 0 | Corn plant response rating (corn; [1]): 0 | Corn plant response rating (corn; [2]): 0 | Plant response rating, Corn (corn; [3]): 0 | Plant response rating, Corn (corn; [4]): 0 | Plant response rating, Corn (corn; [5]): 0 | Corn plant response rating (corn; [6]): 0 | Corn plant response rating (corn; [7]): 0 | Corn plant response rating (corn; [8]): 0 | Blackgrass plant response rating (blackgrass; [1]): 0 | Blackgrass plant response rating (blackgrass; [2]): 3 | Plant response rating, Blackgrass (blackgrass; [3]): 2 | Plant response rating, Blackgrass (blackgrass; [4]): 0 | Plant response rating, Blackgrass (blackgrass; [5]): 5 | Blackgrass plant response rating (blackgrass; [6]): 5 | Blackgrass plant response rating (blackgrass; [7]): 0 | Blackgrass plant response rating (blackgrass; [8]): 3 | Velvetleaf plant response rating (velvetleaf; [1]): 0 | Velvetleaf plant response rating (velvetleaf; [2]): 1 | Plant response rating, Velvetleaf (velvetleaf; [3]): 0 | Plant response rating, Velvetleaf (velvetleaf; [4]): 0 | Plant response rating, Velvetleaf (velvetleaf; [5]): 0 | Velvetleaf plant response rating (velvetleaf; [6]): 0 | Velvetleaf plant response rating (velvetleaf; [7]): 0 | Morningglory plant response rating (morningglory; [1]): 1 | Morningglory plant response rating (morningglory; [2]): 2 | Plant response rating, Morningglory (morningglory; [3]): 0 | Plant response rating, Morningglory (morningglory; [4]): 0 | Plant response rating, Morningglory (morningglory; [5]): 0 | Morningglory plant response rating (morningglory; [6]): 2 | Morningglory plant response rating (morningglory; [7]): 1 | Morningglory plant response rating (morningglory; [8]): 3 | Wheat plant response rating (wheat; [1]): 0 | Wheat plant response rating (wheat; [2]): 0 | Plant response rating, Wheat (wheat; [3]): 0 | Plant response rating, Wheat (wheat; [4]): 0 | Plant response rating, Wheat (wheat; [5]): 0 | Wheat plant response rating (wheat; [6]): 0 | Wheat plant response rating (wheat; [7]): 0 | Giant foxtail plant response rating (giant foxtail; [1]): 0 | Giant foxtail plant response rating (giant foxtail; [2]): 1 | Plant response rating, Giant foxtail (giant foxtail; [3]): 2 | Plant response rating, Giant foxtail (giant foxtail; [4]): 5 | Plant response rating, Giant foxtail (giant foxtail; [5]): 8 | Giant foxtail plant response rating (giant foxtail; [6]): 9 | Giant foxtail plant response rating (giant foxtail; [7]): 1 | Giant foxtail plant response rating (giant foxtail; [8]): 3

Cc1c(Cl)cccc1-n1c(=O)on(C(=O)N(c2ccc(F)cc2)C(C)C)c1=O [Compound 21]
Nutsedge plant response rating (purple nutsedge; [1]): 0 | Nutsedge plant response rating (purple nutsedge; [2]): 0 | Plant response rating, Nutsedge (purple nutsedge; [3]): 0 | Plant response rating, Nutsedge (purple nutsedge; [4]): 0 | Plant response rating, Nutsedge (purple nutsedge; [5]): 0 | Nutsedge plant response rating (purple nutsedge; [6]): 0 | Nutsedge plant response rating (purple nutsedge; [7]): 0 | Nutsedge plant response rating (purple nutsedge; [8]): 0 | B. signalgrass plant response rating (surinam grass; [1]): 0 | B. signalgrass plant response rating (surinam grass; [2]): 0 | Plant response rating, B. signalgrass (surinam grass; [3]): 0 | Plant response rating, B. signalgrass (surinam grass; [4]): 0 | Plant response rating, B. signalgrass (surinam grass; [5]): 0 | B. signalgrass plant response rating (surinam grass; [6]): 0 | B. signalgrass plant response rating (surinam grass; [7]): 0 | B. signalgrass plant response rating (surinam grass; [8]): 0 | Rape plant response rating (rape; [1]): 0 | Rape plant response rating (rape; [2]): 0 | Plant response rating, Rape (rape; [3]): 0 | Plant response rating, Rape (rape; [4]): 0 | Plant response rating, Rape (rape; [5]): 0 | Rape plant response rating (rape; [6]): 0 | Rape plant response rating (rape; [7]): 0 | Rape plant response rating (rape; [8]): 0 | Soybean plant response rating (soybean; [1]): 2 | Soybean plant response rating (soybean; [2]): 2 | Plant response rating, Soybean (soybean; [3]): 0 | Plant response rating, Soybean (soybean; [4]): 0 | Plant response rating, Soybean (soybean; [5]): 0 | Soybean plant response rating (soybean; [6]): 0 | Soybean plant response rating (soybean; [7]): 2 | Cocklebur plant response rating (cocklebur; [1]): 0 | Cocklebur plant response rating (cocklebur; [2]): 5 | Plant response rating, Cocklebur (cocklebur; [3]): 0 | Plant response rating, Cocklebur (cocklebur; [4]): 0 | Plant response rating, Cocklebur (cocklebur; [5]): 0 | Cocklebur plant response rating (cocklebur; [6]): 0 | Cocklebur plant response rating (cocklebur; [7]): 0 | Cocklebur plant response rating (cocklebur; [8]): 7 | Crabgrass plant response rating (crabgrass; [1]): 0 | Crabgrass plant response rating (crabgrass; [2]): 0 | Plant response rating, Crabgrass (crabgrass; [3]): 4 | Plant response rating, Crabgrass (crabgrass; [4]): 7 | Plant response rating, Crabgrass (crabgrass; [5]): 7 | Crabgrass plant response rating (crabgrass; [6]): 7 | Crabgrass plant response rating (crabgrass; [7]): 0 | Crabgrass plant response rating (crabgrass; [8]): 2 | Redroot pigweed plant response rating (pigweed; [1]): 0 | Redroot pigweed plant response rating (pigweed; [2]): 0 | Plant response rating, Redroot pigweed (pigweed; [3]): 6 | Plant response rating, Redroot pigweed (pigweed; [4]): 6 | Plant response rating, Redroot pigweed (pigweed; [5]): 6 | Redroot pigweed plant response rating (pigweed; [6]): 8 | Redroot pigweed plant response rating (pigweed; [7]): 0 | Redroot pigweed plant response rating (pigweed; [8]): 0 | Bedstraw plant response rating (bedstraw; [1]): 0 | Bedstraw plant response rating (bedstraw; [2]): 0 | Plant response rating, Bedstraw (bedstraw; [3]): 0 | Plant response rating, Bedstraw (bedstraw; [4]): 0 | Plant response rating, Bedstraw (bedstraw; [5]): 0 | Bedstraw plant response rating (bedstraw; [7]): 0 | Bedstraw plant response rating (bedstraw; [8]): 6 | Wild oats plant response rating (wild oat; [1]): 0 | Wild oats plant response rating (wild oat; [2]): 0 | Plant response rating, Wild oats (wild oat; [4]): 0 | Plant response rating, Wild oats (wild oat; [5]): 0 | Wild oats plant response rating (wild oat; [6]): 0 | Wild oats plant response rating (wild oat; [7]): 0 | Corn plant response rating (corn; [1]): 0 | Corn plant response rating (corn; [2]): 0 | Plant response rating, Corn (corn; [3]): 0 | Plant response rating, Corn (corn; [4]): 0 | Plant response rating, Corn (corn; [5]): 0 | Corn plant response rating (corn; [6]): 0 | Corn plant response rating (corn; [7]): 0 | Corn plant response rating (corn; [8]): 3 | Blackgrass plant response rating (blackgrass; [1]): 0 | Blackgrass plant response rating (blackgrass; [2]): 0 | Plant response rating, Blackgrass (blackgrass; [3]): 0 | Plant response rating, Blackgrass (blackgrass; [4]): 0 | Plant response rating, Blackgrass (blackgrass; [5]): 0 | Blackgrass plant response rating (blackgrass; [6]): 0 | Blackgrass plant response rating (blackgrass; [7]): 0 | Blackgrass plant response rating (blackgrass; [8]): 0 | Velvetleaf plant response rating (velvetleaf; [1]): 0 | Velvetleaf plant response rating (velvetleaf; [2]): 0 | Plant response rating, Velvetleaf (velvetleaf; [3]): 0 | Plant response rating, Velvetleaf (velvetleaf; [4]): 0 | Plant response rating, Velvetleaf (velvetleaf; [5]): 0 | Velvetleaf plant response rating (velvetleaf; [6]): 0 | Velvetleaf plant response rating (velvetleaf; [7]): 0 | Morningglory plant response rating (morningglory; [1]): 2 | Morningglory plant response rating (morningglory; [2]): 2 | Plant response rating, Morningglory (morningglory; [3]): 0 | Plant response rating, Morningglory (morningglory; [4]): 0 | Plant response rating, Morningglory (morningglory; [5]): 2 | Morningglory plant response rating (morningglory; [6]): 2 | Morningglory plant response rating (morningglory; [7]): 2 | Morningglory plant response rating (morningglory; [8]): 8 | Wheat plant response rating (wheat; [1]): 0 | Wheat plant response rating (wheat; [2]): 0 | Plant response rating, Wheat (wheat; [3]): 0 | Plant response rating, Wheat (wheat; [4]): 0 | Plant response rating, Wheat (wheat; [5]): 0 | Wheat plant response rating (wheat; [6]): 0 | Wheat plant response rating (wheat; [7]): 0 | Giant foxtail plant response rating (giant foxtail; [1]): 0 | Giant foxtail plant response rating (giant foxtail; [2]): 0 | Plant response rating, Giant foxtail (giant foxtail; [3]): 8 | Plant response rating, Giant foxtail (giant foxtail; [4]): 8 | Plant response rating, Giant foxtail (giant foxtail; [5]): 8 | Giant foxtail plant response rating (giant foxtail; [6]): 9 | Giant foxtail plant response rating (giant foxtail; [7]): 0 | Giant foxtail plant response rating (giant foxtail; [8]): 2
